Drawing on US9790169B2, “IDO inhibitors” (BRISTOL-MYERS SQUIBB COMPANY, priority 2015, dated 2017), this text covers IC50 for 32 compounds.

pIC50: −log10 of the molar value. “And” between values parts separate entries of the source, which are not always exact repeats. Identical values can stand only once. Where only a bound is given, the exact number is not on record here.

The target in the assay is human IDO1 (Homo sapiens, UniProt P14902). The experiment in a line: Assessment of human IDO-1 inhibitory activity in Hela cells (Interferon-gamma stimulated HeLa cells, Ehrlich reagent, absorbance 490 nm). In kind it is cell-based. Also on record: endogenous in cells; host or cells: HeLa cells stimulated with interferon-gamma. Particulars: Hela Human IDO-1 cellular assay. Summed up:
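IDO activity induced by 18 h IFN-γ (human 10 ng/ml or murine 5 ng/ml, final) after 1 h compound pre-treatment of HeLa cells at 37 °C. Supernatant kynurenine detected via Ehrlich reagent absorbance at 490 nm following 3% TCA at 50 °C; IC50 set against no-IFN-γ and untreated-stimulated controls.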

Chain of human IDO1 (P14902 whole entry): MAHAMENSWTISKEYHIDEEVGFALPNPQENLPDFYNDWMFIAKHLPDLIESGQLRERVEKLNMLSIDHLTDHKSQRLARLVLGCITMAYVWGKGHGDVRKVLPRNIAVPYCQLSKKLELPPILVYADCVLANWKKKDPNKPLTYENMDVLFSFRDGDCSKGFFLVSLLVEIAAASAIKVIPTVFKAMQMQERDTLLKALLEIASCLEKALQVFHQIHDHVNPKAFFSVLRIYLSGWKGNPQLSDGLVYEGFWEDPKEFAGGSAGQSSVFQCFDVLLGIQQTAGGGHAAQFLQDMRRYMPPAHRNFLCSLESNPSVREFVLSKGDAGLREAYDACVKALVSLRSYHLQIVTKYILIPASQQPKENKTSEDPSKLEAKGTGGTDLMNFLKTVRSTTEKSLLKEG

Broadly, the pIC50 is −log10 of the IC50, conventionally taken in molar units. The low end stands for a large IC50, the high end for a small IC50. `CCC1COCCN1c1ccc([C@@H](COC)CC(=O)O)cc1Nc1ccc(C#N)cn1` (single isomer, unassigned) [Example 1283] showed a pIC50 of under 7.30.
Under `CCC1COCCN1c1ccc([C@@H](COC)CC(=O)O)cc1Nc1cnc(OC)nc1` (single isomer, unassigned) [Example 1284] stands under 7.30; under `CCOc1ncc(Nc2cc([C@@H](COC)CC(=O)O)ccc2N2CCOCC2CC)cn1` (single isomer, unassigned) [Example 1285], under 7.30; under `CCC1COCCN1c1ccc([C@@H](COC)CC(=O)O)cc1Nc1ccc(Cl)cc1` (single isomer, unassigned) [Example 1286], under 7.30.
For the compound `CCC1COCCN1c1ccc([C@H](COC)CC(=O)O)cc1Nc1ccc(C#N)cc1` (single isomer, unassigned) [Example 1287], the pIC50 is under 7.30.
The same measure for `CCC1COCCN1c1ccc([C@H](COC)CC(=O)O)cc1Nc1ccc(C#N)c(F)c1` (single isomer, unassigned) [Example 1288]: under 7.30; for `CCC1COCCN1c1ccc([C@H](COC)CC(=O)O)cc1Nc1ccc(C#N)cn1` (single isomer, unassigned) [Example 1289]: under 7.30.
The compound `CCC1COCCN1c1ccc([C@H](COC)CC(=O)O)cc1Nc1cnc(OC)nc1` (single isomer, unassigned) [Example 1290] gave a pIC50 of under 7.30.
The compound `CCOc1ncc(Nc2cc([C@H](COC)CC(=O)O)ccc2N2CCOCC2CC)cn1` (single isomer, unassigned) [Example 1291] had a pIC50 of under 7.30.
For `CCC1COCCN1c1ccc([C@H](COC)CC(=O)O)cc1Nc1ccc(Cl)cc1` (single isomer, unassigned) [Example 1292], the pIC50 is over 7.30.
Consider `CCC1COCCN1c1ccc([C@H](COC)CC(=O)O)cc1Nc1ccc(F)cc1` (single isomer, unassigned) [Example 1293], for which the pIC50 was under 7.30.
Turning to `CCC1COCCN1c1ccc([C@H](COC)CC(=O)O)cc1Nc1ccc(F)cn1` (single isomer, unassigned) [Example 1294], the pIC50 was under 7.30.
Under `CCC1COCCN1c1ccc([C@@H](COC)CC(=O)O)cc1Nc1ccc(C#N)cc1` (single isomer, unassigned) [Example 1295] stands over 7.30; under `CCC1COCCN1c1ccc([C@@H](COC)CC(=O)O)cc1Nc1ccc(Cl)cc1` (single isomer, unassigned) [Example 1300], over 7.30; under `CCC1COCCN1c1ccc([C@@H](COC)CC(=O)O)cc1Nc1ccc(F)cc1` (single isomer, unassigned) [Example 1301], under 7.30.
The same measure for `CCC1COCCN1c1ccc([C@@H](COC)CC(=O)O)cc1Nc1ccc(F)cn1` (single isomer, unassigned) [Example 1302]: under 7.30; for `CCC1COCCN1c1ccc([C@H](COC)CC(=O)O)cc1Nc1ccc(C#N)cc1` (single isomer, unassigned) [Example 1303]: over 7.30.
Compound `CCC1COCCN1c1ccc([C@H](COC)CC(=O)O)cc1Nc1ccc(C#N)c(F)c1` (single isomer, unassigned) [Example 1304] had a pIC50 of over 7.30.
`CCC1COCCN1c1ccc([C@H](COC)CC(=O)O)cc1Nc1ccc(F)cc1` (single isomer, unassigned) [Example 1309] showed a pIC50 of over 7.30.
As to `COCC(CC(=O)O)c1ccc(N2CCOC(C)C2)c(Nc2ccc(C#N)cc2)c1` (single isomer, unassigned) [Example 1312, 3-(3-((4-cyanophenyl)amino)-4-(2-methylmorpholino)phenyl)-4-methoxybutanoic acid], the pIC50 was under 7.30.
Compound `COCC(CC(=O)O)c1ccc(N2CCOC(C)C2)c(NC(=O)Nc2ccc(Cl)cc2F)c1` (single isomer, unassigned) [Example 1314 D1, 3-(3-(3-(4-Chloro-2-fluorophenyl)ureido)-4-(2-methylmorpholino)phenyl)-4-methoxybutanoic acid] showed a pIC50 of under 7.30.
`COCC(CC(=O)O)c1ccc(N2CCOC(C)(C)C2)c(Nc2ccc(Cl)cc2)c1` (single isomer, unassigned) [Example 1315 E1, 3-(3-((4-Chlorophenyl)amino)-4-(2,2-dimethylmorpholino)phenyl)-4-methoxybutanoic acid] had a pIC50 of under 7.30.
The same measure for `COCC(CC(=O)O)c1ccc(N2CCOC(C)(C)C2)c(Nc2ccc(C#N)cc2)c1` (single isomer, unassigned) [Example 1316, 3-(3-((4-cyanophenyl)amino)-4-(2,2-dimethylmorpholino)phenyl)-4-methoxybutanoic acid]: under 7.30.
`COCC(CC(=O)O)c1ccc(N2CCOC(C)(C)C2)c(NC(=O)Nc2ccc(Cl)cc2F)c1` (single isomer, unassigned) [Example 1318 E1, 3-(3-(3-(4-Chloro-2-fluorophenyl)ureido)-4-(2,2-dimethylmorpholino)phenyl)-4-methoxybutanoic acid]: the pIC50 was under 7.30.
The same measure for `CCC(CC(=O)O)c1ccc(N2CCOC(C)(C)C2)c(Nc2ccc(Cl)cc2)c1` (single isomer, unassigned) [Example 1319 E1, 3-(3-((4-Chlorophenyl)amino)-4-(2,2-dimethylmorpholino)phenyl)pentanoic acid]: over 7.30; for `CCC(CC(=O)O)c1ccc(N2CCOC(C)(C)C2)c(Nc2ccc(C#N)cc2)c1` (single isomer, unassigned) [Example 1320, 3-(3-((4-cyanophenyl)amino)-4-(2,2-dimethylmorpholino)phenyl)pentanoic acid]: < 7.30 and > 7.30.
`CCC(CC(=O)O)c1ccc(N2CCOC(C)(C)C2)c(NC(=O)Nc2ccc(Cl)cc2F)c1` (single isomer, unassigned) [Example 1322 E1, 3-(3-(3-(4-Chloro-2-fluorophenyl)ureido)-4-(2,2-dimethylmorpholino)phenyl)pentanoic acid] gave a pIC50 of under 7.30.
Consider `CCOc1ncc(Nc2cc([C@H](CC)CC(O)C(F)(F)F)ccc2N(CC)C2CCOCC2)cn1` (single isomer, unassigned) [Example 1336 D1], for which the pIC50 was over 7.30.
In turn, `CCOc1ncc(Nc2cc([C@@H](CC)CC(C)(C)O)ccc2N(CC)C2CCOCC2)cn1` (single isomer, unassigned) [Example 1345] had a pIC50 of under 7.30.
The compound `CCOc1ncc(Nc2cc(C(CC)CC(C)(C)O)ccc2N2CCC(c3ccccc3)CC2)cn1` (single isomer, unassigned) [Example 1349, 4-(3-((2-Ethoxypyrimidin-5-yl)amino)-4-(4-phenylpiperidin-1-yl)phenyl)-2-methylhexan-2-ol] showed a pIC50 of under 7.30.
Consider `COCC(CC(=O)O)c1ccc(N2CCC(c3ccccc3)CC2)c(Nc2ccc(C#N)cc2)c1` (single isomer, unassigned) [Example 1350 E1, 3-(3-((4-Cyanophenyl)amino)-4-(4-phenylpiperidin-1-yl)phenyl)-4-methoxybutanoic acid], for which the pIC50 is over 8.30.
In turn, `CCOc1ncc(Nc2cc(C(COC)CC(=O)O)ccc2N2CCC(c3ccccc3)CC2)cn1` (single isomer, unassigned) [Example 1351, 3-(3-((2-ethoxypyrimidin-5-yl)amino)-4-(4-phenylpiperidin-1-yl)phenyl)-4-methoxybutanoic acid] showed a pIC50 of over 7.30.
